According to US9346820B2, “HIV-1 protease inhibitors having gem-di-fluoro bicyclic P2-ligands” (priority 2013, dated 2016):
Read-outs that look alike come from different tables or passages of the source.

How the values were obtained:
Assay type in all cases: cell-based
[1] = system: HIV-1GRL04810^RP18; assay: microbe, parasite or virus in culture; conditions: for EC50: Human immunodeficiency virus 1, MT4, read-out: EC50 HIV-1GRL04810^RP18; for fold change of EC50 HIV-1GRL04810^RP18 vs HIV-1NL4-3: number in parentheses
Protocol: (§1) The susceptibility of HIV-1LAI to various drugs was determined as previously described with minor modifications. Briefly, MT-2 cells (10^4/ml) were exposed to 100 50% tissue culture infectious doses (TCID50) of HIV-1LAI in the presence or absence of various concentrations of drugs in 96-well microculture plates and were incubated at 37° C. for 7 days. After 100 μl of the medium was removed from each well, 3-(4,5-dimetylthiazol-2-yl)-2,5-diphenyltetrazolium bromide (MTT) solution (10 μl, 7.5 mg/ml in phosphate-buffered saline) was added to each well in the plate, followed by incubation at 37° C. for 2 h. […] All assays were performed in duplicate or triplicate. […] To determine the sensitivity of primary HIV-1 isolates to drugs, phytohemagglutinin-stimulated peripheral blood mononuclear cells (PHA-PBMC) (10^6/ml) were exposed to 50 TCID50 of each primary HIV-1 isolate and cultured in the presence or absence of various concentrations of drugs in 10-fold serial dilutions in 96-well microculture plates. In determining the drug susceptibility of certain laboratory HIV-1 strains, MT-4 cells were employed as target cells as previously described with minor modifications. In brief, MT-4 cells (10^5/ml) were exposed to 100 TCID50 of drug-resistant HIV-1 strains in the presence or absence of various concentrations of drugs and were incubated at 37° C. On day 7 of culture, the supernatants were harvested and the amounts of p24 Gag protein were determined by using a fully automated chemiluminescent enzyme immunoassay system (Lumipulse F: Fujirebio Inc., Tokyo). […] All assays were performed in duplicate or triplicate. PHA-PBMs were derived from a single donor in each independent experiment. Thus, for obtaining the data, three different donors were recruited.
(§2) The amounts of p24 were measured every two days for up to 7 days.

[2] = system: HIV-1GRL05010^RP10; assay: microbe, parasite or virus in culture; conditions: for EC50: Human immunodeficiency virus 1, MT4, read-out: EC50 HIV-1GRL05010^RP10; for fold change of EC50 HIV-1GRL05010^RP10 vs HIV-1NL4-3: number in parentheses
Protocol: as §1, §2

[3] = system: HIV-1MDR/B; assay: microbe, parasite or virus in culture; conditions: for EC50: Human immunodeficiency virus 1, read-out: EC50 HIV-1MDR/B (X4); for fold change of EC50 HIV-1MDR/B vs HIV-1ERS104pre: number in parentheses
Protocol: (§3) All primary HIV-1 strains were passaged once or twice in 3-day-old phytohemagglutinin activated peripheral blood mononuclear cells (PHA-PBM), and the culture supernatants were stored at −80° C. until use.
as §1

[4] = system: HIV-1MDR/JSL; assay: microbe, parasite or virus in culture; conditions: for EC50: Human immunodeficiency virus 1, read-out: EC50 HIV-1MDR/JSL (R5); for fold change of EC50 HIV-1MDR/JSL vs HIV-1ERS104pre: number in parentheses
Protocol: as §3, §1

[5] = system: HIV-1MDR/MM; assay: microbe, parasite or virus in culture; conditions: for EC50: Human immunodeficiency virus 1, read-out: EC50 HIV-1MDR/MM (R5); for fold change of EC50 HIV-1MDR/MM vs HIV-1ERS104pre: number in parentheses
Protocol: as §3, §1

[6] = system: HIV-1ERS104pre; assay: p24 Gag production inhibition in PHA-PBMs, wild-type clinical isolate
Protocol: as §3, §1

[7] = system: HIV-1LAI; assay: Antiviral activity of brain-side medium from the BBB assay, MTT assay in MT-2 cells
Protocol: (§4) The “brain-side” of the medium containing a compound collected in the BBB in vitro assay, was subjected to antiviral assays. Two HIV-1 isolates were employed, HIV-1LAI (Panel A) and HIV-1ERS104pre (Panel B). […] Dilution ranges were between 10-fold and 10,000-fold, and the percentage of viral inhibition was used as an endpoint. […] Assays were conducted in duplicate and error bars show standard deviations.
(§5) The assay was carried out using 10, 100, 1000 and 10000 times-diluted brain-side stocks of compounds.

[8] = system: HIV-1ERS104pre; assay: Antiviral activity of brain-side medium from the BBB assay, p24 assay in PHA-PBMs; conditions: PHA-activated PBMCs
Protocol: as §4, §5

[9] = Human immunodeficiency virus 1, read-out: EC50 HIV-1ERS104pre (X4)
[10] = 10-fold diluted brain-side medium
[11] = 100-fold diluted brain-side medium
[12] = Human immunodeficiency virus 1, PHA-PBMs, p24 Gag endpoint, read-out: EC50 HIV-1ERS104pre (X4)

Structure (SMILES)	EC50 [1]	fold change of EC50 HIV-1GRL04810^RP18 vs HIV-1NL4-3 [1]	EC50 [2]	fold change of EC50 HIV-1GRL05010^RP10 vs HIV-1NL4-3 [2]	EC50 [3]	fold change of EC50 HIV-1MDR/B vs HIV-1ERS104pre [3]	EC50 [4]	fold change of EC50 HIV-1MDR/JSL vs HIV-1ERS104pre [4]	EC50 [5]	fold change of EC50 HIV-1MDR/MM vs HIV-1ERS104pre [5]	EC50 [6, 9]	suppression of HIV-1LAI replication [7, 10]	suppression of HIV-1LAI replication [7, 11]	antiviral profile of brain-side preparations (FIG. 5B) [8]	EC50 [6, 12]	suppression levels of brain-side preparations compared (FIG. 5A) ([7]; HIV-1LAI)
COC(=O)N[C@H](C(=O)N[C@@H](Cc1ccccc1)[C@@H](O)CN(Cc1ccc(-c2ccccn2)cc1)NC(=O)[C@@H](NC(=O)OC)C(C)(C)C)C(C)(C)C [ATV, Atazanavir]	325 nM	81 fold	95 nM	24 fold	450 nM	214 fold	> 1000 nM	> 476 fold	81 nM	38 fold	2.1 nM	–	–	–	–	–
CC(C)CN(C[C@@H](O)[C@H](Cc1ccccc1)NC(=O)O[C@H]1CO[C@H]2OCC[C@H]21)S(=O)(=O)c1ccc(N)cc1 [DRV, darunavir]	41 nM	–	37 nM	–	–	–	25 nM	–	10 nM	–	4 nM	–	–	–	–	–
COc1ccc(S(=O)(=O)N(CC(C)C)C[C@@H](O)[C@H](Cc2ccccc2)NC(=O)OC2CO[C@H]3OCC(F)(F)[C@@H]23)cc1 (some centres unmarked) [GRL-04810]	33 nM	66 fold	29 nM	58 fold	14 nM	7 fold	21 nM	10 fold	2 nM	1 fold	–	94%	45%	virtually the same antiviral profiles	2.3 nM	–
CC(C)CN(C[C@@H](O)[C@H](Cc1ccccc1)NC(=O)O[C@H]1CO[C@H]2OCC(F)(F)[C@H]21)S(=O)(=O)c1ccc(N)cc1 [GRL-05010]	39 nM	13 fold	36 nM	10 fold	11 nM	3 fold	20 nM	7 fold	3 nM	1 fold	–	91%	73%	virtually the same antiviral profiles	2.7 nM	–
CC(C)(C)NC(=O)[C@@H]1C[C@@H]2CCCC[C@@H]2CN1C[C@@H](O)[C@H](Cc1ccccc1)NC(=O)[C@H](CC(N)=O)NC(=O)c1ccc2ccccc2n1 [SQV, Saquinavir]	32 nM	1 fold	36 nM	1 fold	350 nM	90 fold	530 nM	133 fold	110 nM	27 fold	3.9 nM	–	–	–	–	less than those of GRL-04810^brain and GRL-05010^brain
